Test [1] deals with T1, 5-HT3AB receptor, 5-HT3B subunit W90C (Homo sapiens, UniProt O95264+P46098, W83C).
T1 sequence (P46098 24-478): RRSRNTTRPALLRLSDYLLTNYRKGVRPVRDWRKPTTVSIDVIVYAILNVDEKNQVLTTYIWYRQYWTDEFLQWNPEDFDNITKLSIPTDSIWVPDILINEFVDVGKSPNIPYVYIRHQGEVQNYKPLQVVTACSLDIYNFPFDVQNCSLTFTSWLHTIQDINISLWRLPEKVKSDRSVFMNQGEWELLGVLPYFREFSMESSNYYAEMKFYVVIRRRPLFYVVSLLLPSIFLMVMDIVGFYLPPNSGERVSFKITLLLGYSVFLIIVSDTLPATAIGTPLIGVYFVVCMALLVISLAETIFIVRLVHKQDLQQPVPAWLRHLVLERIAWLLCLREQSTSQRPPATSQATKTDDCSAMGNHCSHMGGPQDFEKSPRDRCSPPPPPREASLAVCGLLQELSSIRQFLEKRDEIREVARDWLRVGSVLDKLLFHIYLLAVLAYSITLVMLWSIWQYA
T1 sequence (O95264 22-441 W83C): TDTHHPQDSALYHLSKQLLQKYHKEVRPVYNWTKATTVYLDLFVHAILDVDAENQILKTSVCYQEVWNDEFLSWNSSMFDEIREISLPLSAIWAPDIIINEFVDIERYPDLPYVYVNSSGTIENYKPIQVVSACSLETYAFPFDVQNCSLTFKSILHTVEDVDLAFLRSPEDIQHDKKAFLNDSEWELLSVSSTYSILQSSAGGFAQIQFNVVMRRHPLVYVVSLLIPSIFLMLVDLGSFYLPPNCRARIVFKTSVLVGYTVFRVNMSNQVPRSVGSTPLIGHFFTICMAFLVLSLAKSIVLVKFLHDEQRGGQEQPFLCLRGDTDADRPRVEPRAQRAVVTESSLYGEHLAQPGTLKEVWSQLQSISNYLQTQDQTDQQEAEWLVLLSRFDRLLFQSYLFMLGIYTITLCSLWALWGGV
Kind of test: FlexStation membrane potential dye functional assay, HEK293 cells. The following applies: 5-HT concentration-response, 5-HT3AB with 5-HT3B W90C.
Experimental: (§1) Human embryonic kidney (HEK) 293 cells were cultured on 90 mm tissue culture plates at 37 °C and 7% CO2 in a humidified atmosphere. They were grown in DMEM:F12 (Dulbecco’s Modified Eagle’s Medium/Nutrient Mix F12 (1:1)) with GlutaMAX I™ containing 10% fetal calf serum and passaged when confluent. […] For FlexStation assays, transfected cells were plated on 96-well plates and incubated 1–2 days before assay.
(§2) Fluorometric studies were undertaken using a FlexStation® (Molecular Devices, Sunnyvale, CA, USA) as previously described.[11]
(§3) Fluorescence was measured every 2 s for 200 s. […] Concentration–response and inhibition curves were obtained for each mutant, and the fluorescence values were normalized to the maximal response.

Test [2] addresses T2, 5-HT3AB receptor, 5-HT3B subunit H73A (Homo sapiens, UniProt O95264+P46098, H66A).
T2 sequence (P46098 24-478): T1 sequence (P46098 24-478)
T2 sequence (O95264 22-441 H66A): T1 sequence (O95264 22-441 W83C) with H45A, C62W
Described as above. Conditions: 5-HT concentration-response, 5-HT3AB with 5-HT3B H73A.
Experimental: as §1, §2, §3

Test [3] concerns the target T3, 5-HT3A receptor D165A (Homo sapiens, UniProt P46098, D160A).
T3 sequence (P46098 24-478 D160A): T1 sequence (P46098 24-478) with D137A
Kind of test: cell-based.

Test [4] addresses T4, 5-HT3AB receptor, 5-HT3B subunit I183A (Homo sapiens, UniProt O95264+P46098, I176A).
T4 sequence (P46098 24-478): T1 sequence (P46098 24-478)
T4 sequence (O95264 22-441 I176A): T1 sequence (O95264 22-441 W83C) with C62W, I155A
Kind of test: radioligand saturation binding, transfected HEK293 membranes. Conditions: [3H]-palonosetron saturation, 5-HT3AB with 5-HT3B I183A, 4 °C, 24 h.
Experimental: (§4) Human embryonic kidney (HEK) 293 cells were cultured on 90 mm tissue culture plates at 37 °C and 7% CO2 in a humidified atmosphere. They were grown in DMEM:F12 (Dulbecco’s Modified Eagle’s Medium/Nutrient Mix F12 (1:1)) with GlutaMAX I™ containing 10% fetal calf serum and passaged when confluent. For radioligand binding studies, cells in 90 mm dishes were transfected at 60–70% confluency using polyethyleneimine and incubated for 3–4 days before use. For FlexStation assays, transfected cells were plated on 96-well plates and incubated 1–2 days before assay. […]
(§5) Eight-point binding assays were performed to produce saturation binding curves. […] Radioactive counts were measured using a Beckman LS6000SC liquid scintillation counter (Fullerton, California, USA).
(§6) Data were analyzed by iterative curve fitting using GraphPad Prism v5 (San Diego, CA) according to the following equation: B=Bmax[L]^n/kdn+[L]^n where B is the amount of bound radioligand, Bmax is the maximum specific binding at equilibrium, [L] is the concentration of radioligand, Kd is the equilibrium dissociation constant of the radioligand, and n is the Hill coefficient.

Test [5] concerns the target T5, 5-HT3AB receptor, 5-HT3B subunit E170A (Homo sapiens, UniProt P46098).
T5 construct: variant as stated: E170A
T5 sequence (P46098 24-478): T1 sequence (P46098 24-478)
T5 sequence (O95264 22-441 partner): T1 sequence (O95264 22-441 W83C) with C62W
Briefly: biochemical. The format is binding. The following applies: [3H]-palonosetron saturation, 5-HT3AB with 5-HT3B E170A, 4 °C, 24 h.
Experimental: as §4, §5, §6

The values that follow come from paper PMC3898987 (Bioorganic & Medicinal Chemistry, 2013).

Each structure is given as a SMILES string. Where a chain is given by its changes, count along the chain named.

As to `NCCc1c[nH]c2ccc(O)cc12` [5-HT, serotonin], the “Hill Coefficient” value in test [1] is 2.0 ± 0.4; in test [2] it was 1.6 ± 0.2.
Take `O=C1c2cccc3c2[C@H](CCC3)CN1[C@@H]1CN2CCC1CC2` [Palonosetron]: in test [3], the IC50 is 1.33 ± 0.45 nM. The results for the Kd in test [4] and in test [5] were 0.23 ± 0.12 nM and 0.21 ± 0.03 nM, respectively.
